Source: US20080096861A1, “Chemical Compounds” (SMITHKLINE BEECHAM CORPORATION, priority 2004, published 2008)
Where two headings read alike, the source gives them in different places.

Assays:
Format in all cases: cell-based
CXCR4 receptor = biological target: T1, CXCR4 receptor (Homo sapiens, UniProt P61073); assay: Functional FLIPR assay (block of SDF-1 alpha induced [Ca2+]i change); settings: HEK-293 cells, human CXCR4 BacMam and Gqi5 BacMam, read-out: Functional assay (pIC50) (converted)
T1 construct: expressed in transfected cells; host or cells: HEK-293 cells (stably expressing human macrophage scavenger receptor) transduced with human CXCR4 BacMam and Gqi5 BacMam
Procedure: Human embryonic kidney (HEK-293) cells were maintained and harvested as described above. Cells were plated in 96-well, black clear bottom, poly-lysine coated plates at a concentration of 40,000 cells per well in a final volume of 100 ul containing human CXCR4BacMam (MOI=25) and Gqi5 BacMam (MOI=12.5). The cells were incubated at 37° C., 5% CO2, 95% humidity for 24 h to allow for protein expression.
After the required incubation time the cells were washed once with 50 ul of fresh serum-free DMEM/F12 media containing probenicid. 50 ul of dye solution was then added to the cells (Calcium Plus Assay Kit Dye; Molecular Devices) was dissolved in 200 ml of the above probenicid/BSA containing media and incubated for 1 h. Cell plates were transferred to a Fluorometric Imaging Plate Reader (FLIPR). Upon addition the effect of the compounds on the change in [Ca^2+]i was examined to determine if the compounds were agonists or antagonists (ability to block SDF-1 alpha activity) at the CXCR4 receptor. IC50 values are determined and pKb values are calculated using the Leff and Dougall equation: KB═IC50/((2+([agonist]/EC50̂b)̂1/b−1) Where IC50 is that defined by the antagonist concentration-response curve [agonist)] is the EC80 concentration of agonist used EC50 is that defined by the agonist concentration-response curve b is the slope of the agonist concentration-response curve.

[1] = test system: HIV-1 gp160 (HXB2 strain) mediated cell/cell fusion; assay: Cell/cell fusion assay (HOS hCXCR4/hCCR5/hCD4/pHIV-LTR-luciferase cells with HEK-293 cells expressing HIV-1 tat, rev, gp160), luciferase readout; settings: Homo sapiens, HEK293, 24 h, read-out: Fusion assay (pIC50) (converted)
Source text: The complete coding sequences of HIV-1 tat (GenBank Accession No. X07861) and rev (GenBank Accession No. M34378) were cloned into pcDNA3.1 expression vectors containing G418 and hygromycin resistance genes, respectively. The complete coding sequence of the HIV-1 (HXB2 strain) gp160 envelope gene (nucleotide bases 6225-8795 of GenBank Accession No. K03455) was cloned into plasmid pCRII-TOPO. The three HIV genes were additionally inserted into the baculovirus shuttle vector, pFastBacMam1, under the transcriptional control of the CMV promoter. A construction of the pHIV-1 LTR containing mutated NFkB sequences linked to the luciferase reporter gene was prepared by digesting pcDNA3.1, containing the G418 resistance gene, with Nru I and Bam HI to remove the CMV promoter. LTR-luc was then cloned into the Nru I/Bam HI sites of the plasmid vector. Plasmid preparations were performed after the plasmids were amplified in Escherichia coli strain DH5-alpha. The fidelity of the inserted sequences was confirmed by double-strand nucleotide sequencing using an ABI Prism Model 377 automated sequencer.
Recombinant BacMam baculoviruses were constructed from pFastBacMam shuttle plasmids by using the bacterial cell-based Bac-to-Bac system. Viruses were propagated in Sf9 (Spodoptera frugiperda) cells cultured in Hink's TNM-FH Insect media supplemented with 10% (v/v) fetal bovine serum and 0.1% (v/v) pluronic F-68 according to established protocols.
Human osteosarcoma (HOS) cells that naturally express human CXCR4 were transfected with human CCR5, human CD4 and the pHIV-LTR-luciferase plasmid using FuGENE 6 transfection reagent. Single cells were isolated and grown under selection condition in order to generate a stable HOS (hCXCR4/hCCR5/hCD4/pHIV-LTR-luciferase) clonal cell line. The cells were maintained in Dulbeccos modified Eagles media supplemented with 10% fetal calf serum (FCS), G418 (400 ug/ml), puromycin (1 ug/ml), mycophenolic acid (40 ug/ml), xanthine (250 ug/ml) and hypoxanthine (13.5 ug/ml) to maintain a selection pressure for cells expressing the LTR-luciferase, hCCR5 and hCD4, respectively. Human embryonic kidney (HEK-293) cells stably transfected to express the human macrophage scavenging receptor (Class A, type 1; GenBank Accession No. D90187), were maintained in DMEM/F-12 media (1:1) supplemented with 10% FCS and 1.5 ug/ml puromycin. The expression of this receptor by the HEK-293 cells enhances their ability to stick to tissue culture treated plasticware.
HEK-293 cells were harvested using enzyme-free cell dissociation buffer. The cells were resuspended in DMEM/F-12 media supplemented with 10% FCS and 1.5 ug/ml and counted. Tranductions were performed by direct addition of BacMam baculovirus containing insect cell media to cells. The cells were simultaneously transduced with BacMam baculovirus expressing HIV-1 tat, HIV-1 rev and HIV-1 gp160 (from the HXB2 HIV strain). Routinely an MOI of 10 of each virus was added to the media containing the cells. 2 mM butyric acid was also added to the cells at this stage to increase protein expression in transduced cells. The cells were subsequently mixed and seeded into a flask at 30 million cells per T225. The cells were incubated at 37° C., 5% CO2, 95% humidity for 24 h to allow for protein expression.
HEK and HOS cells were harvested in DMEM/F-12 media containing 2% FCS and DMEM media containing 2% FCS, respectively, with no selection agents added. Compounds were plated as 1 ul spots in 100% DMSO on a 96-well CulturPlate plates. HOS cells (50 ul) were added first to the wells, followed immediately by the HEK cells (50 ul). The final concentration of each cell type was 20,000 cells per well. Following these additions, the cells were returned to a tissue culture incubator (37° C.; 5% CO2/95% air) for an additional 24 h.
Following the 24 h incubation, total cellular luciferase activity was measured using the LucLite Plus assay kit (Packard, Meridien, Conn.). […]

[2] = Compound cytotoxicity in HOS cells in the absence of virus (CellTiter-Glo); settings: human, no virus, read-out: Cytotox (pIC50) (converted)
Procedure: Compounds were profiled against two HIV-1 viruses, the M-tropic (CCR5 utilizing) Ba-L strain and the T-tropic (CXCR4 utilizing) IIIB strain. Both viruses were propagated in human peripheral blood lymphocytes. Compounds were tested for there ability to block infection of the HOS cell line (expressing hCXCR4/hCCR5/hCD4/pHIV-LTR-luciferase) by either HIV-1 Ba-L or HIV-1 IIIB. Compound cytotoxicity was also examined in the absence of virus addition.
HOS cells (expressing hCXCR4/hCCR5/hCD4/pHIV-LTR-luciferase) were harvested and diluted in Dulbeccos modified Eagles media supplemented with 2% FCS and non-essential amino acid to a concentration of 60,000 cells/ml. The cells were plated into 96-well plates (100 ul per well) and the plates were placed in a tissue culture incubator (37° C.; 5% CO2/95% air) for a period of 24 h.
Subsequently, 50 ul of the desired drug solution (4 times the final concentration) was added to each well and the plates were returned to the tissue culture incubator (37° C.; 5% CO2/95% air) for 1 h. Following this incubation 50 ul of diluted virus was added to each well (approximately 2 million RLU per well of virus). The plates were returned to the tissue culture incubator (37° C.; 5% CO2/95% air) and were incubated for a further 96 h.
Following this incubation the endpoint for the virally infected cultures was quantified following addition of Steady-Glo Luciferase assay system reagent (Promega, Madison, Wis.). Cell viability or non-infected cultures was measured using a CellTiter-Glo luminescent cell viability assay system (Promega, Madison, Wis.). All luminescent readouts are performed on a Topcount luminescence detector (Packard, Meridien, Conn.).

HIV-1 IIIB = assay: HOS HIV-1 infectivity assay
Procedure, shortened: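 Cytotoxicity was measured by CellTiter-Glo in virus-free cultures, while antiviral activity used Steady-Glo luciferase after 96 h infection with T-tropic IIIB virus (~2 million RLU/well). Both used HOS hCXCR4/hCCR5/hCD4/pHIV-LTR-luciferase cells in 2% FCS DMEM, with compound added 1 h before virus.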

[3] = Human immunodeficiency virus 1, IIIB, as determined by the infectivity assay, strain not stated in Table 2, read-out: Activity Level
[4] = Human immunodeficiency virus 1, T-tropic (CXCR4 utilizing) IIIB strain, HOS cells, 96 h, read-out: HOS (3B)

T1 sequence (P61073 whole entry): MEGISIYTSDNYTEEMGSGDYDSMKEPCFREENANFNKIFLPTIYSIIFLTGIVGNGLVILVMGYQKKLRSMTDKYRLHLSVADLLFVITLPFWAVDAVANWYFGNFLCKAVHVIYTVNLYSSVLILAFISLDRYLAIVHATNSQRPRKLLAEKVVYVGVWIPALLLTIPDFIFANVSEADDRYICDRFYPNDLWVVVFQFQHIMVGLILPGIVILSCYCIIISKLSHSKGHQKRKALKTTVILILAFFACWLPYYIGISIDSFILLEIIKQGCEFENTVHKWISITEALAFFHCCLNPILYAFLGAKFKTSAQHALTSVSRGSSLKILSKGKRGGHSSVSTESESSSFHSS

SMILES	IC50 (CXCR4 receptor) [nM]	IC50 [1] [nM]	IC50 at 96 h [2] [nM]	IC50 (HIV-1 IIIB; [3]) [µM]	IC50 (HIV-1 IIIB; [4]) [µM]	IC50 (HIV-1 IIIB; Human immunodeficiency virus 1, IIIB, HOS, 96 h, read-out: HOS (3B) (uM)) [µM]	IC50 (HIV-1 IIIB; Human immunodeficiency virus 1, IIIB, read-out: Activity Level) [µM]
CC(C)CCN(Cc1nc2ccccc2n1CCCN)C1CCCc2cccnc21 (stereo not drawn) [Example 22, N-{[1-(3-Aminopropyl)-1H-benzimidazol-2-yl]methyl}-N-(3-methylbutyl)-5,6,7,8-tetrahydro-8-quinolinamine]	56.2	158	> 100000	0.1 to 0.5	0.113	–	–
CN1CC(Cn2c(CN(C)C3CCCc4cccnc43)nc3ccccc32)C1 (stereo not drawn) [Example 10e, N-Methyl-N-({1-[(1-methyl-3-azetidinyl)methyl]-1H-benzimidazol-2-yl}methyl)-5,6,7,8-tetrahydro-8-quinolinamine]	117	91.2	> 100000	< 0.1	0.066	–	–
CN1CCCC(Cn2c(CN(C)C3CCCc4cccnc43)nc3ccccc32)C1 (stereo not drawn) [Example 7, N-Methyl-N-({1-[(1-methyl-3-piperidinyl)methyl]-1H-benzimidazol-2-yl}methyl)-5,6,7,8-tetrahydro-8-quinolinamine]	8.13	20.9	> 100000	< 0.1	0.019	–	–
CN(Cc1nc2ccccc2n1CCCNCc1ccccn1)C1CCCc2cccnc21 (stereo not drawn) [Example 16, N-Methyl-N-[(1-{3-[(2-pyridinylmethyl)amino]propyl}-1H-benzimidazol-2-yl)methyl]-5,6,7,8-tetrahydro-8-quinolinamine]	58.9	148	> 100000	0.1 to 0.5	0.121	–	–
CN(Cc1nc2ccccc2n1Cc1cccnc1)C1CCCc2cccnc21 (stereo not drawn) [Example 3, N-Methyl-N-{[1-(3-pyridinylmethyl)-1H-benzimidazol-2-yl]methyl}-5,6,7,8-tetrahydro-8-quinolinamine]	398	1780	> 100000	0.5 to 10	0.574	–	–
CN1CCCCC1CCn1c(CN(C)C2CCCc3cccnc32)nc2ccccc21 (stereo not drawn) [Example 23e, N-Methyl-N-({1-[2-(1-methyl-2-piperidinyl)ethyl]-1H-benzimidazol-2-yl}methyl)-5,6,7,8-tetrahydro-8-quinolinamine]	17.4	38	> 100000	< 0.1	0.033	–	–
CN(Cc1nc2ccccc2n1Cc1ccc(CN)cc1)C1CCCc2cccnc21 (stereo not drawn) [Example 14, N-[(1-{[4-(Aminomethyl)phenyl]methyl}-1H-benzimidazol-2-yl)methyl]-N-methyl-5,6,7,8-tetrahydro-8-quinolinamine]	282	708	> 100000	0.5 to 10	0.985	–	–
CN(C)C/C=C\Cn1c(CN(C)C2CCCc3cccnc32)nc2ccccc21 (stereo not drawn) [Example 24, N-({1-[(2Z)-4-(Dimethylamino)-2-buten-1-yl]-1H-benzimidazol-2-yl}methyl)-N-methyl-5,6,7,8-tetrahydro-8-quinolinamine]	15.5	20.4	> 100000	< 0.1	0.025	–	–
CN(Cc1nc2ccccc2n1CC1CCNCC1)C1CCCc2cccnc21 (stereo not drawn) [Example 6, N-Methyl-N-{[1-(4-piperidinylmethyl)-1H-benzimidazol-2-yl]methyl}-5,6,7,8-tetrahydro-8-quinolinamine]	282	240	> 100000	< 0.1	0.09	–	–
CN1CCC(n2c(CN(C)C3CCCc4cccnc43)nc3ccccc32)CC1 (stereo not drawn) [Example 11i, N-Methyl-N-{[1-(1-methyl-4-piperidinyl)-1H-benzimidazol-2-yl]methyl}-5,6,7,8-tetrahydro-8-quinolinamine]	37.2	79.4	> 100000	–	–	0.082	< 0.1
CN1CCOC(Cn2c(CN(C)C3CCCc4cccnc43)nc3ccccc32)C1 (stereo not drawn) [Example 25, N-Methyl-N-({1-[(4-methyl-2-morpholinyl)methyl]-1H-benzimidazol-2-yl}methyl)-5,6,7,8-tetrahydro-8-quinolinamine]	29.5	38	> 100000	0.1 to 0.5	0.185	–	–
NCCCn1c(CNC2CCCc3cccnc32)nc2ccccc21 (stereo not drawn) [Example 19, N-{[1-(3-Aminopropyl)-1H-benzimidazol-2-yl]methyl}-5,6,7,8-tetrahydro-8-quinolinamine]	234	513	> 100000	< 0.1	0.09	–	–
